Source: paper PMC9028392, “Oleyl Conjugated Histidine-Arginine Cell-Penetrating Peptides as Promising Agents for siRNA Delivery” (Pharmaceutics, 2022)

What was measured:
[1] = Dynamic light scattering, hydrodynamic diameter and PDI of peptide-siRNA complexes; assay type: physicochemical; conditions: DLS, 25 °C, peptide-siRNA complex at N/P 40, siRNA 50 nM, HBSS, mean of three independent experiments; for Z-Ave (hydrodynamic diameter): Malvern Nano ZS Zetasizer
Description: The complex of oleyl conjugated peptides and siRNA was formed through physical mixing. Appropriate volumes of oleyl conjugated peptides and siRNA solution were mixed in Hank’s balanced salt solution (HBSS) buffer to obtain the complexes. The oleyl conjugated peptide-siRNA complexes were formed due to ionic interaction between positively charged arginine residues of the conjugates and the negatively charged phosphate groups of siRNAs. […] The N to P ratio is commonly used where N represents the number of moles of ionizable nitrogen in the delivery agent. In contrast, P refers to the number of moles of phosphates present in siRNA. The ratio is calculated using the following formula. N/P=number of moles pf peptidex number of ionized nitrogen atoms/(number of moles of siRA ×48)
The peptide-siRNA complexes were characterized using the dynamic light scattering (DLS) technique. Malvern Nano ZS Zetasizer (Westborough, MA, USA) was used to determine the hydrodynamic diameter and surface charge of the complexes at 25 °C. The zeta potential of the complexes was determined at 40 V using disposable folded capillary cells (DTS1070). The calibration of the instrument was performed by transfer standard DTS 1235. The disposable cuvettes were used for determining the hydrodynamic diameter. The N/P ratio 40 was selected for performing the dynamic light scattering experiment. At this N/P ratio, the final concentration of siRNA in the complex was 50 nM whereas the concentration of oleyl-(HR)4 was 24 µM, oleyl-R1-(HR)4 was 19.20 µM, oleyl-R2-(HR)4 was 16 µM, oleyl-R3-(HR)4 was 13.71 µM, oleyl-R4-(HR)4 was 12 µM, and oleyl-R5-(HR)4 was 10.67 µM. The final volume of the complex used for performing zeta potential was 750 µL. The measurements were performed in triplicate, where each measurement consisted of 20 runs. The zeta potential values were calculated using the Smoluchowski model. All the results passed the quality standard of the instrument.
Particle size was also determined at N/P 40 with the same concentrations of siRNA and oleyl conjugated peptides as described above. The experiments were performed in triplicate on each sample with an automatic attenuator setting. The results were checked with the quality standards of the instruments and were represented as mean ± SD of three independent experiments.

MDA-MB-231 cells [2] = assay: Cellular uptake of siRNA by confocal microscopy; assay type: cell-based; conditions: MDA-MB-231, fixed cells, N/P 40, siRNA 50 nM, 24 h
Procedure: Confocal microscopy was used to corroborate the data obtained from flow cytometry. There have been reports for using fixed cells or live cells for imaging the cellular uptake of siRNA. We adopted the protocol of Aliabadi et al. to perform the confocal microscopy. Briefly, approximately 400,000 MDA-MB-231 cells were seeded on coverslips in 6-well plates and were allowed to settle for 24 h. After 24 h, the cells were visualized under an ordinary microscope for their health and confluency. Peptide-siRNA complexes at N/P ratio 40 were made containing a final concentration of 50 nM of siRNA, and the cells were treated with these complexes. Nontreated cells served as negative control while lipofectamine-siRNA complexes were used as a positive control. After 24 h of treatment, the cells grown on coverslips were washed 3 times with HBSS and fixed with 3.7% formaldehyde solutions solution for 30 min at room temperature. The […] of the cells were stained with Texas Red (TR) Phalloidin (Invitrogen) (1:250 in HBSS), while the nuclei of the cells were stained with 4′,6-diamidino-2-phenylindole (DAPI). Nikon A1R confocal microscope system was used to image the fixed cells at 60X objective and different filters for Alexa-488 (FITC), DAPI, and TR.

STAT-3 = STAT-3 protein silencing by peptide/STAT-3 siRNA complexes (Western blot); assay type: cell-based; conditions: MDA-MB-231, N/P 40, STAT-3 siRNA 50 nM, 48 h; for STAT-3 expression: GAPDH housekeeping
Procedure: STAT-3 is an essential protein overexpressed in several cancer types, including breast cancer. The silencing effect of the STAT-3 siRNA delivered via oleyl conjugated peptides was determined by checking the expression of STAT-3 in peptide-siRNA complex treated cells. Expression of STAT-3 in nontreated cells served as a negative control, whereas the commercially used transfection agent lipofectamine (20 µg/mL) complexed with STAT-3 siRNA (50 nM) served as the positive control. STAT-3 expression was evaluated by the Western blotting experiment. Approximately 500,000 MDA-MB-231 cells were seeded in T-25 flasks and incubated at 37 °C under standard growth conditions. After 24 h, the cells were treated with peptide-siRNA complexes at N/P 40 for 48 h. The final siRNA concentration at this N/P was 50 nM. After 48 h of treatment, MDA-MB-231 cell lysates were prepared according to the standard protocol using RIPA buffer; the cell lysates were then incubated on ice for 1 h, during which the tubes were sonicated for 3 min after every 10 min. Following sonication for 1 h to ensure the complete lysis of cells, the tubes were centrifuged for 15 min at 12,000 rpm (RCF = 13,870× g) at 4 °C. The supernatant from the centrifuged tubes was transferred to a fresh set of pre-cooled microtubes, and the total protein concentration was determined using […]. Briefly, 200 μL of working reagent (50:1 A:B) was added to 25 μL of standard and unknown samples in triplicate into a 96-well plate, and the sample was mixed on a plate shaker for 30 s. The plate was then incubated at 37 °C and 5% CO2 for 30 min. After half an hour of incubation, the absorbance was measured at 562 nm using a Spectra MAX M5 microplate reader. The protein in each treatment sample was quantified using the BSA standard curve. A total of 15 µg of the protein was loaded per well in a 10% Mini-PROTEAN® TGX Stain-Free. Protein gel electrophoresis was performed in buffer (0.192 M glycine, 25 mM Tris, 0.1% SDS) for 30 min at 200 V. The gel was then transferred to Mini PVDF membrane (Catalog no. 1704156) using Trans-Blot® Turbo (Bio-Rad, Hercules, CA, USA). The membrane was blocked in BSA 5% for 3 h and then incubated at 4 °C overnight with the primary antibody (1:1000 in TBS-T). The membrane was then washed with TBS-T six times (5 min each time) and was subsequently incubated with the secondary HRP-linked antibody (1:1000 in TBS-T) for 1 h, followed by the washing steps. The detection of the bands was done by ECL Detect Kit using a ChemiDoc imager (Bio-Rad, Hercules, CA, USA). The bands were quantified using Image Lab™ software of ChemiDoc imager.

MDA-MB-231 cells [3] = assay: Cellular internalization of Alexa Fluor 488-labeled siRNA by flow cytometry; assay type: cell-based; conditions: 24 h; for Increase in cellular uptake of siRNA compared to free siRNA: MDA-MB-231, N/P 40, Alexa-488 siRNA 50 nM, flow cytometry mean fluorescence intensity
Procedure: The cellular uptake of siRNA complexed with oleyl conjugated peptides was evaluated using flow cytometry (BD-FACSVerse; BD Biosciences, San Jose, CA, USA) in live cells. Alexa fluor 488-labeled scrambled siRNA was used for making complexes with oleyl conjugated peptides. The peptide-siRNA complexes were made at N/P 40; the final concentration of siRNA in each complex was 50 nM. The study was performed on MDA-MB-231 according to the protocol described by Mandal et al.. Briefly, approximately 500,000 cells were seeded in each well of the six-well plates and were allowed to settle for 24 h. The cells were treated with the conjugate-siRNA complexes (N/P 40) and were incubated in a humidified atmosphere of 5% CO2 and 95% air at 37 °C for 24 h. After 24 h of treatment, the cells were washed three times with HBBS and were trypsinized. The suspended cells were centrifuged for 5 min at 1000 rpm (96× g) at 4 °C, and the cells pellet was washed with HBSS three times to remove any traces of the medium. Finally, the cells were resuspended in PBS and analyzed by flow cytometer using Alexa-Fluor-488 channel to quantify the mean fluorescence intensity. The mean fluorescent intensity in the treated cells was calculated for each sample based on the calibration of the signal gated with nontreated cells, serving as a negative control. Alexa-488 labeled scrambled siRNA served as a second negative control, and lipofectamine-siRNA treated cells were used as a positive control.

[4] = MDA-MB-231, N/P 40, siRNA 50 nM, flow cytometry, n = 3

| PDI (polydispersity index) [1] | Z-Ave (hydrodynamic diameter) [1] [nm·days] | Substance | Green fluorescence (Alexa-488 siRNA) in confocal images (MDA-MB-231 cells [2]) | Reduction (inhibition) in STAT-3 expression (STAT-3) | STAT-3 expression (STAT-3) | Increase in cellular uptake of siRNA compared to free siRNA (MDA-MB-231 cells [3]) | STAT-3 inhibition compared with Lipofectamine 2000 (STAT-3; three independent experiments) | Cellular uptake compared with lipofectamine (MDA-MB-231 cells [3]; [4]) | Cellular uptake of siRNA within the series (MDA-MB-231 cells [3]; [4]) | Mean fluorescent intensity compared with Alexa-488 siRNA treated cells (MDA-MB-231 cells [3]; [4]) |
| --- | --- | --- | --- | --- | --- | --- | --- | --- | --- | --- |
| 0.237 | 115.2 | Oleyl-RRRR-(HR)4-OH [Oleyl-R4-(HR)4] | comparable green fluorescence | ~ 41% | ~ 41% | ~ 80 fold | – | – | – | – |
| 0.213 | 115.6 | Oleyl-RRRRR-(HR)4-OH [Oleyl-R5-(HR)4, oleyl conjugated peptide with five R residues between oleyl and (HR)4] | comparable green fluorescence | ~ 80% | ~ 20% | – | comparable inhibition | nonsignificant difference | maximum cellular uptake | – |

Second part, the substance before the results:

| Substance | PDI (polydispersity index) [1] | Z-Ave (hydrodynamic diameter) [1] [nm·days] | Green fluorescence (Alexa-488 siRNA) in confocal images (MDA-MB-231 cells [2]) | Reduction (inhibition) in STAT-3 expression (STAT-3) | STAT-3 expression (STAT-3) | Increase in cellular uptake of siRNA compared to free siRNA (MDA-MB-231 cells [3]) | STAT-3 inhibition compared with Lipofectamine 2000 (STAT-3; three independent experiments) | Cellular uptake compared with lipofectamine (MDA-MB-231 cells [3]; [4]) | Cellular uptake of siRNA within the series (MDA-MB-231 cells [3]; [4]) | Mean fluorescent intensity compared with Alexa-488 siRNA treated cells (MDA-MB-231 cells [3]; [4]) |
| --- | --- | --- | --- | --- | --- | --- | --- | --- | --- | --- |
| Oleyl-RRR-(HR)4-OH [Oleyl-R3-(HR)4] | 0.229 | 117 | – | ~ 55% | ~ 55% | ~ 80 fold | – | – | – | – |
| Oleyl-RR-(HR)4-OH [Oleyl-R2-(HR)4] | 0.217 | 115.6 | – | ~ 68% | ~ 68% | – | – | – | – | – |
| Oleyl-(HR)4-OH | 0.213 | 120.1 | – | – | – | – | – | – | – | nonsignificant difference in intensity |
| Oleyl-R-(HR)4-OH [Oleyl-R1-(HR)4] | 0.201 | 116.9 | – | – | – | – | – | – | – | nonsignificant difference in intensity |
